Values quoted from earlier work, collected in PMC11328599, “Crystal structure of dihydroneopterin aldolase from Mycobacterium tuberculosis associated with 8-mercaptoguanine, and development of novel S8-functionalized analogues as inhibitors: Synthesis, enzyme inhibition, in vitro toxicity and antitubercular activity” (Journal of Enzyme Inhibition and Medicinal Chemistry, 2024).

Biological target: T1, MtFolB (Mycobacterium tuberculosis, UniProt P9WNC5)
T1 construct: made in house
Design: method as in PMID 33752554
Settings: previously reported; cited from earlier work

T1 sequence (P9WNC5 whole entry): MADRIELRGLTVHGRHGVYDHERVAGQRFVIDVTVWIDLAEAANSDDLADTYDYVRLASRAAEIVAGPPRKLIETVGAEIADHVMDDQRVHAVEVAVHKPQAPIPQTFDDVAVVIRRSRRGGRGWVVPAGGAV

Nc1nc2nc(S)[nH]c2c(=O)[nH]1 [Compound 8-MG, 8-mercaptoguanine]
Inhibition mode: non-competitive
